# Test results reported in patent publication US8691972B2, “Compounds and synthesis of tellurium-derivatized oligonucleotides for structural and functional studies” (priority 2009, dated 2014).
# “And” between values parts separate entries of the source, which are not always exact repeats. Identical values can stand only once.
# Experiments:
# [1] = tested on: 3′-CGGACAAGAAG-5′ (complementary DNA strand); test: Thermo-denaturation (UV-melting, 260 nm) of non-self-complementary DNA duplex; format: physicochemical; details: for average Tm (melting temperature) of the duplex: duplex 5′-C(2′-TeX-dU)TCTTGTCCG-3′ & 3′-CGGACAAGAAG-5′, four measurements, 50 mM NaCl, 10 mM phosphate pH 6.5, 0.1 mM EDTA, 10 mM MgCl2, 0.5° C./min
# Protocol: (§1) Solution of the duplex DNA (2 uM) was prepared by dissolving the DNAs in a buffer containing 50 mM NaCl, 10 mM NaH2PO4—Na2HPO4 (pH 6.5), 0.1 mM EDTA and 10 mM MgCl2. The solution was heated to 70° C. for 2 min and cooled slowly to room temperature, followed by storing at 4° C. for overnight before measurement. The Tm curves were acquired at 260 nm by heating the samples from 5 to 70° C. at a rate of 0.5° C./min using Cary 300 UV-Visible Spectrophotometer with a temperature controller. […] The samples (1 mM duplex) were heated from 6 to 75° C. with a rate of 0.5° C./min. The red, blue and green curves represent the native, 2′-TeMe and 2′-TePh duplex, respectively, and are labelled in FIG. 6. The average Tm (four measurements) for each duplex is: 44.0±0.1° C. (native), 40.7±0.1° C. (2′-TeMe) and 36.8±0.2° C. (2′-TePh). […] The samples (1 mM duplex) were heated from 6 to 70° C. with a rate of 0.5° C./min. The circle (red), diamond (blue) and hexagon (purple) curves represent the native, 2′-TeMe and 2′-TePh DNA duplexes, respectively, with the averaged Tm (four times): 39.4° C. (native), 28.6° C. (2′-TeMe) and 23.4° C. (2′-TePh).
# [2] = tested on: self-complementary duplex [5′-G(2′-TeX-dU)GTACAC-3′]2; test: Thermo-denaturation (UV-melting, 260 nm) of self-complementary DNA duplex; format: physicochemical; details: for averaged Tm of the duplex: self-complementary 8-mer 5′-G(2′-TeX-dU)GTACAC-3′, two modifications per duplex, four times, 0.5° C./min; for Tm decrease per modification: self-complementary duplex [5′-G(2′-TeX-dU)GTACAC-3′]2, compared with native; for Tm decrease compared with the native duplex: self-complementary duplex [5′-G(2′-TeX-dU)GTACAC-3′]2, double Te-modification
# Protocol: as §1
average Tm (melting temperature) of the duplex [1],difference in melting temperature between native and modified DNA ([1]; non-self-complementary duplex 5′-C(2′-TeX-dU)TCTTGTCCG-3′ and 5′-CGGACAAGA-AG-3′),averaged Tm of the duplex [2],Tm decrease per modification [2],Tm decrease compared with the native duplex [2],Substance
40.7±0.1 °C and 40.7 °C,3.3 °C,–,–,–,5′-C(2′-TeX-dU)TCTTGTCCG-3′&3′-CGGACAAGAAG-5′ [2′-TeMe duplex]
36.8±0.2 °C and 36.8 °C,–,–,–,–,5′-C(2′-TeX-dU)TCTTGTCCG-3′&3′-CGGACAAGAAG-5′ [2′-TePh duplex]
44.0±0.1 °C and 44.0 °C,–,–,–,–,"5′-C(2′-TeX-dU)TCTTGTCCG-3′&3′-CGGACAAGAAG-5′ [native duplex, reference compound]"
–,–,28.6 °C,5.0 °C,10 °C,"[5′-G(2′-TeX-dU)GTACAC-3′, X=Ph or Me]2 [2′-TeMe DNA duplex]"
–,–,23.4 °C,7.5 °C,15 °C,"[5′-G(2′-TeX-dU)GTACAC-3′, X=Ph or Me]2 [2′-TePh DNA duplex]"
